Article PMC11402896, “Developmental toxicity and estrogenic activity of antimicrobial phenolic-branched fatty acids using in silico simulations and in vivo and in vitro bioassay” (Frontiers in Toxicology, 2024)

Assays:
chicken embryo = assay: Chicken embryonic assay (developmental toxicity, liver TBARS); assay type: in vivo; details: for LSI (%) (liver somatic index) / REEW (ratio of embryo to egg weight) / Weights (g) Embryo / Weights (g) Heart / Weights (g) Liver: mean ± SD
Procedure: In total, 124 fertilized Leghorn eggs were obtained from the University of Delaware research farm. […] On day 6, the eggs were candled, and a hole was drilled for injection of each chemical at two dosage levels, or VC at 0.2 mL. The hole was sealed with Duco Cement, and eggs were placed back in the egg incubator at 38°C and 60% relative humidity. Each test was repeated in two independent trials. The incubation ended on day 18, and the number of dead embryos was recorded during the incubation period. All embryos were dissected and evaluated for deformation, embryo mass, liver mass, heart mass, ratio of embryo to egg weight (REEW), liver somatic index (LSI), and TBARS levels as described in ([Zhang and Wu, 2022]). Each test was repeated in two independent trials and in duplicate for each trial.
(§1) All data were reported as the mean ± standard deviation (SD) of at least two independent trials. The MCF-7 cell proliferation rates of each compound at different concentrations were compared using a one-way analysis of variance (ANOVA) followed by Dunnett’s test with the statistical software JMP 16.0. The developmental indexes (REEW, LSI, weights) and TBARS values obtained from chicken embryonic assays were evaluated by a one-way ANOVA followed by Dunnett’s test performed with JMP.
The developmental toxicity of phenolic-soy BCFAs was evaluated at dosages reported for natural phenolics via a chicken embryo model ([Zhang et al., 2021]; [Zhang and Wu, 2022]). In the present study, 0.1% DMSO in PBS was used as VC.

MCF-7 cells = assay: MCF-7 cell proliferation assay (estrogenic activity); assay type: cell-based; details: 10 and 100 nM, p < 0.05, positive control
Procedure: MCF-7 cells were grown and maintained as previously described ([Peng et al., 2018]). The EA of creosote, creosote-soy BCFA, and iso-oleic acid was investigated at 10 nM to 1 μM. We evaluated EA for newly synthesized phenolic soy BCFAs with a focus on those who have both good performances in antimicrobial activity and low developmental toxicity in the chicken embryo model. Chemicals were dissolved in DMSO and diluted to the test concentrations (0.1% DMSO). No treatment and VC (0.1% DMSO in cell medium) were included as controls. Fresh medium with test compounds was added on day 2 and refreshed every 2 days. After 6-day exposure, cell numbers were measured by MTT assay using a microplate spectrophotometer ([Peng et al., 2018]). The test was repeated in two independent trials with triplicates for each trial, and cell proliferation rates were calculated for each compound.
as §1

[1] = test system: estrogen signaling pathway; details: cited from earlier work
chicken embryos = test system: chicken embryos; parameters: method as in Zhang et al., 2021; details: ref Zhang et al., 2021, cited from earlier work; for Mortality rate: chicken embryos, 50 μg/kg dosage
human fibroblast (WS-1) = test system: human fibroblast (WS-1); parameters: method as in Günes-Bayir et al., 2018; details: dose-dependent manner at 0–100 µM; ref Günes-Bayir et al., 2018; cited from earlier work
[2] = test system: gastric adenocarcinoma cells; parameters: method as in Günes-Bayir et al., 2018; details: dose-dependent manner at 0–100 µM; ref Günes-Bayir et al., 2018; cited from earlier work
[3] = chicken embryo day 18, dosage 3.1 μg/kg
[4] = chicken embryo day 18, dosage 31 μg/kg
[5] = chicken embryo day 18, egg injection day 6, dosage 3.1 μg/kg
[6] = chicken embryo day 18, egg injection day 6, dosage 31 μg/kg
[7] = chicken embryo day 18, egg injection day 6, dosage 31 μg/kg, listed as phenol

SMILES: Oc1ccccc1 [Phenol]
- LSI (%) (liver somatic index) (chicken embryo; [3]): 2.20 ± 0.25%
- REEW (ratio of embryo to egg weight) (chicken embryo; [3]): 0.39 ± 0.014
- Weights (g) Embryo (chicken embryo; [3]): 23.61 ± 2.74 g
- Weights (g) Heart (chicken embryo; [3]): 0.21 ± 0.03 g
- Weights (g) Liver (chicken embryo; [3]): 0.52 ± 0.12 g
- LSI (%) (liver somatic index) (chicken embryo; [4]): 2.23 ± 0.23%
- REEW (ratio of embryo to egg weight) (chicken embryo; [4]): 0.36 ± 0.029
- Weights (g) Embryo (chicken embryo; [4]): 22.04 ± 2.54 g
- Weights (g) Heart (chicken embryo; [4]): 0.22 ± 0.01 g
- Weights (g) Liver (chicken embryo; [4]): 0.52 ± 0.04 g
- Malformation rate (%) (chicken embryo; [5]): 0.0 (0) %
- Mortality rate (%) (chicken embryo; [5]): 0.0 (0) %
- Mortality rate (%) (chicken embryo; chicken embryo day 18, egg injection day 6, dosage 3.1 μg/kg, listed as phenol): no mortality
- Malformation rate (%) (chicken embryo; [6]): 12.5 (1) %
- Mortality rate (%) (chicken embryo; [6]): 0.0 (0) %
- Malformation rate (%) (chicken embryo; [7]): deformed embryos (stunting) were observed
- Mortality rate (%) (chicken embryo; [7]): no mortality

SMILES: C[C@]12CC[C@@H]3c4ccc(O)cc4CC[C@H]3[C@@H]1CC[C@@H]2O [E2, 17β-Estradiol]
- Cell proliferation rate compared with no treatment and VC (MCF-7 cells): significantly increased cell proliferation rates
- Concentration of highest EA ([1]; across the test range from 10^–15 to 10^–4 M, ref Peng et al., 2018): 10 nM
- Concentration of peak EA ([1]; our previous findings, ref not given): 10^−9 M

SMILES: Cc1ccc(C(C)C)c(O)c1 [Thymol]
- Mortality rate (chicken embryos): no death was found

SMILES: Cc1ccc(C(C)C)cc1O [Carvacrol]
- TBARS levels in fetal chicken liver (chicken embryos; 50 μg/kg): significantly increased TBARS levels
- Mortality rate (chicken embryos): 45.5%
- Estrogenic activity (EA) ([1]; at 10^–12 M, ref Zhang et al., 2021): weak EA
- Reactive oxygen species generation (human fibroblast (WS-1)): induced reactive oxygen species generation
- Reactive oxygen species generation [2]: induced reactive oxygen species generation
